In patent US9109041B2, “Analog compounds of analgesic peptides derived from the venom of crotalus durissus terrificus snakes, their uses, compositions, methods of preparation and purification” (priority 2004, dated 2015):

Legend:
[1] = test system: spontaneous pain induced by constriction of the sciatic nerve; assay: spontaneous pain induced by constriction of the sciatic nerve (licking and lifting time); assay type: in vivo, rat; details: 5 μg/kg p.o.
Protocol: For the induction of neuropathic pain, surgery was performed in the sciatic nerve, in accordance with the method described by Bennett, G. J and Xie, Y. K. (Pain, 33:87-107, 1988). The animals were anesthetized with halothane. The sciatic nerve was exposed in the middle region of the thigh, moving away the femoral biceps muscle. Close to the trifurcation of the sciatic nerve, 7 mm of distance from the trifurcation, 4 loose ligations were performed (chromed catgut 4-0) around it, distant from each other in approximately 1 mm. The bindings were performed along the nerve, up to 4-5 mm from the initial point. The incision was sutured in layers, using silk suture thread number 4-0.
For the observation of the signs that characterize spontaneous pain, the animals were placed one by one, in a transparent plastic box. After the acclimatizing period of 30 minutes, the rats were observed during 10 minutes, determining the duration of the licking (in seconds) and lifting time. The licking and lifting activities, performed as part of the normal grooming behavior of animals, were not considered.

[2] = test system: spontaneous pain induced by the Walker 256 tumor; assay: spontaneous pain induced by the Walker 256 tumor (lifting, licking); assay type: in vivo, rat; details: 6 μg/kg p.o.
Text: The Walker 256 tumor cells were kindly provided by Prof. Dr. Rui Curi, of the Physiology and Biophysics Department of the Biomedical Science Institute of the University of São Paulo. The tumor-bearing animal was sacrificed and the tumoral tissue was removed, placed on a Petri dish containing 0.9% saline. Then, the tumor was cut in smaller parts, and transferred into a beaker containing saline. The material was triturated with a fine-cut, until the tumor is totally fragmented. Then, this material was filtered in gauze and the liquid collected in a beaker. All procedures were performed on ice. The material of the beaker was transferred to 50 ml plastic tubes and centrifuged at 4° C., for 10 minutes, at 1200 rpm. After centrifugation, the supernatant was rejected and the precipitate resuspended in saline 0.9%. For cell counts, the suspension of cells was diluted (1:100) in saline. An aliquot (200 μl) was removed and placed in a test tube containing 200 μl of 1% Trypan blue. The cell number was determined in optical microscope using Neubauer's chamber. The cellular viability was determined considering viable the light-refracting cells.
After determining the number of cells, 1 ml of the suspension, containing 1×10^7 cells, was injected by intraperitoneal route, on the right side of the rats to obtain liquid tumor (ascites).
Five days after injection, the rats with ascites were sacrificed and the ascetic fluid collected from the peritoneal cavity and placed in a test tube containing EDTA. The liquid was diluted 100 times with phosphate-buffered saline (PBS), pH 7.4. The cell count was done after dilution with Trypan blue, as described above. Tumor cell count was ascertained to 1×10^6 cells in 100 μl, by dilution with PBS. This number of cells was determined in preliminary tests for induction of cancer pain in rats. In this final cell number adjustment, the volume of antibiotic (Benzetacil®) added to the suspension (150,000 units of antibiotic/10 ml of suspension), was taken into consideration. The antibiotic was used in order to avoid microbial contamination. The cells were injected by intraplantar route into one of the rat hind paws. Control animals were injected with PBS into the contralateral paw, in the same experimental conditions.
Hyperalgesia, allodynia and spontaneous pain were determined before (BM-basal measurement) and 5 days after tumor cell injection, before (IM-initial measurement) and 2 hours after (FM-Final measurement) peptide administration.
The results were analyzed comparing the mean values of the basal and initial measurements, or of the initial and final measurements or, when determined, by comparing the mean values obtained in the different experimental groups (Tables 17, 18, 19).

[3] = test system: thermal nociception (hot plate 50° C.); assay: hot plate test; assay type: in vivo, mice; details: for latency time (reaction time), FM (s) ± S.E.M.: 2 hours after treatment; for latency time (reaction time), IM (s) ± S.E.M.: before treatment
Protocol: This test is used for evaluation of drugs that interfere with nociception in the Central Nervous System, as for example, morphine and derived products, since the thermal stimulus activates directly the nociceptor, avoiding tissue lesion and consequent inflammation. The data obtained in this test indicate that the antinociceptive effect of a compound is mainly due to a supraspinally integrated response.
This test was performed in accordance to the method described by Jacob, J. J. C. and Ramabadran, K. (Br. J. Pharmacol., 64:91-8, 1978). For this test, mice were placed on a metal surface kept at 50° C.±1. Results are expressed as the latency time (in seconds—s) to observe the licking of both anterior feet (reaction time). This test was applied before (initial measurement—IM) and 2 hours after the treatment of the animals (final measurement—FM) with saline (control) or with the synthetic peptide (1 and 3 μg/kg in 200 μl), orally. Each animal was considered as their own control. The results were analyzed comparing the mean values of the IM and FM or, when determined, by comparing the mean values obtained in the different experimental groups (Table 22).

[4] = day 14 after surgery, before peptide, 10 min observation
[5] = 5th day after tumor implantation, 2 hours after peptide
[6] = 5th day after tumor implantation, before peptide

Xaa-Phe-Ser-Pro-Glu-Asn-Cys-Gln-Gly-Glu-Ser-Gln-Pro-Cys [SEQ ID NO: 2]
lifting time, FM 1 h ([1]; 1 h after peptide): 2 ± 0.21 s
paw licking time, FM 1 h ([1]; 1 h after peptide): 2 ± 0.21 s
lifting time, FM 3 h ([1]; 3 h after peptide): 2 ± 0.26 s
paw licking time, FM 3 h ([1]; 3 h after peptide): 2 ± 0.21 s
lifting time, FM 24 h ([1]; 24 h after peptide): 2 ± 0.22 s
paw licking time, FM 24 h ([1]; 24 h after peptide): 2 ± 0.39 s
lifting time, FM 48 h ([1]; 48 h after peptide): 1.0 ± 0.16 s
paw licking time, FM 48 h ([1]; 48 h after peptide): 1.5 ± 0.22 s
lifting time, FM 72 h ([1]; 72 h after peptide): 2 ± 0.26 s
paw licking time, FM 72 h ([1]; 72 h after peptide): 1.5 ± 0.22 s
lifting time, FM 96 h ([1]; 96 h after peptide): 1.5 ± 0.16 s
paw licking time, FM 96 h ([1]; 96 h after peptide): 21 ± 0.26 s
lifting time, FM 120 ([1]; 120 h after peptide): 95 ± 0.50 s
paw licking time, FM 120 ([1]; 120 h after peptide): 21 ± 0.38 s
lifting time, IM [1, 4]: 97 ± 0.43 s
paw licking time, IM [1, 4]: 22 ± 0.64 s
Licking duration, FM [2, 5]: 1.6 ± 0.81 s
Lifting duration, FM [2, 5]: 25 ± 7.72 s
Licking duration, IM [2, 6]: 15 ± 1.46 s
Lifting duration, IM [2, 6]: 204 ± 30.74 s
Licking duration, BM ([2]; before injection of the tumor): 0 ± 0.00 s
Lifting duration, BM ([2]; before injection of the tumor): 0 ± 0.00 s
latency time (reaction time), FM (s) ± S.E.M. ([3]; 1 μg/kg p.o.): 25 ± 0.68 s
latency time (reaction time), IM (s) ± S.E.M. ([3]; 1 μg/kg p.o.): 18 ± 0.64 s
latency time (reaction time), FM (s) ± S.E.M. ([3]; 3 μg/kg p.o.): 27 ± 1.06 s
latency time (reaction time), IM (s) ± S.E.M. ([3]; 3 μg/kg p.o.): 22 ± 1.01 s
